Results on 4 molecules are retold here after ChEMBL document CHEMBL1158111, “Bohemamines from a marine-derived Streptomyces sp” (J Nat Prod, 2006).

Activity calls are given as the source filed them. The calls are words filed in the database; no cut-off is given here.

The test system of this experiment is HCT-116. Put plainly: Growth inhibition of human HCT116 cells. The class given is functional, cell-based.
As for `CC(C)=CC(=O)NC1=CC(=O)[C@]2(C)[C@H](O)[C@@H](Cl)[C@H](C)N12`, the result was inactive.
Take `CC(C)=CC(=O)NC1=CC(=O)[C@]2(C)[C@H](O)C[C@H](C)N12`: the result was inactive.
On to `CC(C)=CC(=O)NC1=CC(=O)[C@]2(C)[C@@H]3O[C@@H]3[C@H](C)N12`, for which the outcome was inactive.
To `CC(C)=CC(=O)NC1=CC(=O)[C@]2(C)C[C@H](O)[C@H](C)N12` belongs “inactive”.
